Test results reported in ChEMBL document CHEMBL1126397, “Synthesis of acid stable 5-o-fluoromethyl phosphonates of nucleosides. Evaluation as inhibitors of reverse transcriptase” (Bioorg Med Chem Lett, 1992).

target: T1, Avian myoblastosis virus polyprotein II (Avian myeloblastosis virus, UniProt Q86831); assay: Inhibitor of avian myeloblastosis virus AMV reverse transcriptase
T1 sequence (Q86831 whole entry): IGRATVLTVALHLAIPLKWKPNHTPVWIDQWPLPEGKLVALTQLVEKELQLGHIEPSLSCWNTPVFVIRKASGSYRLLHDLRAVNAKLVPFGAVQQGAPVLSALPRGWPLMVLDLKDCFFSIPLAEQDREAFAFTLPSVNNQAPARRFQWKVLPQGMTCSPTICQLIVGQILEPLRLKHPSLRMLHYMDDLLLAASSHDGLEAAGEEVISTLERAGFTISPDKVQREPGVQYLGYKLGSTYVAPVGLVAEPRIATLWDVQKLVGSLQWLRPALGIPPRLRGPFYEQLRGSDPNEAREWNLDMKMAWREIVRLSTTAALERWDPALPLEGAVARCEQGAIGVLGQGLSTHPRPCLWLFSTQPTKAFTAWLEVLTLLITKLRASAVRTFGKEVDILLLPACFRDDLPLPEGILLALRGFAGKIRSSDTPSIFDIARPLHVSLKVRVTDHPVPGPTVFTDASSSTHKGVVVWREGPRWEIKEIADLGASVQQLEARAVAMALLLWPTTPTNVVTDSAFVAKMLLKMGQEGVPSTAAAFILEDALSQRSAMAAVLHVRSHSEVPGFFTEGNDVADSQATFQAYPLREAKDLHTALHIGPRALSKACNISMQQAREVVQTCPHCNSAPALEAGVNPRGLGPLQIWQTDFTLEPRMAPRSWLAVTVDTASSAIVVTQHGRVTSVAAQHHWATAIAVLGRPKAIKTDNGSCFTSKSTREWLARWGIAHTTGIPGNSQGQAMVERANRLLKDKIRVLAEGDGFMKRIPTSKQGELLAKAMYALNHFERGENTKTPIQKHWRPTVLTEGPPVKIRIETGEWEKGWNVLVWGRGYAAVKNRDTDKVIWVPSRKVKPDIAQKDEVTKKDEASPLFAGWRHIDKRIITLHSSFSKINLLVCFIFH

First: Cc1cn(C2C=CC(COP(=O)(O)C(F)F)O2)c(=O)[nH]c1=O (stereo not given)
Second: Cc1cn(C2C=CC(COP(=O)(O)CF)O2)c(=O)[nH]c1=O (stereo not given)
The IC50 of the first is 3.2-fold higher: 887 µM for the first, 281 µM for the second.

Going from Cc1cn(C2C=CC(COP(=O)(O)C(F)(F)F)O2)c(=O)[nH]c1=O (stereo not given) to Cc1cn(C2CC(N=[N+]=[N-])C(COP(=O)(O)C(F)(F)F)O2)c(=O)[nH]c1=O (stereo not given), the IC50 falls from 842 µM to 37.6 µM (22-fold). The second is the more potent here.

Cc1cn(C2CC(N=[N+]=[N-])C(COP(=O)(O)C(F)F)O2)c(=O)[nH]c1=O (stereo not given) and Cc1cn(C2CC(N=[N+]=[N-])C(COP(=O)(O)CF)O2)c(=O)[nH]c1=O (stereo not given) are within 1.5-fold of each other in IC50: 118 µM for the first, 127 µM for the second.

Compared with O=c1[nH]c(=O)n([C@H]2C[C@H](O)[C@@H](COP(=O)(O)C(F)F)O2)cc1F, O=c1[nH]c(=O)n([C@H]2C[C@H](O)[C@@H](COP(=O)(O)C(F)(F)F)O2)cc1F is 4.6-fold lower in IC50: 375 µM for the first, 82 µM for the second.

Nc1nc(O)c2ncn(C3O[C@H](COP(=O)(O)C(F)(F)F)[C@@H](O)[C@H]3O)c2n1 (stereo not given in full) and Nc1ccn(C2O[C@H](COP(=O)(O)C(F)F)[C@@H](O)[C@H]2O)c(=O)n1 (stereo not given in full) are within 1.5-fold of each other in IC50: 145 µM for the first, 171 µM for the second.
